# Test results from PMC5516028, “Molecular tools for GABAA receptors: High affinity ligands for β1-containing subtypes” (Scientific Reports, 2017).
# Where “and” joins values, the source holds several entries; their conditions need not be identical. Equal entries are not always repeated. Where two headings read alike, the source gives them in different places.
# Assays:
# Assay type in all cases: cell-based
# [1] = biological target: T1, α5β3 GABAA receptors (Rattus norvegicus, UniProt P19969+P63079); assay: Two electrode voltage clamp in Xenopus laevis oocytes, α5β3; conditions: read-out: efficacy, % of control current (GABA EC3-5 = 100%), α5β3
# T1 construct: expressed in transfected cells; host or cells: Xenopus laevis oocytes, mRNA injected
# Text: (§1) cDNA’s of rat GABAA receptor subunits α1, α4, β1, β2, β3 and γ2S were cloned as described. cDNAs of the rat subunits α2, α3 and α5 were gifts from P. Malherbe, that of α6 and γ1 were gifts of P. Seeburg and that of δ was a gift of C. Czajkowski. The mutants were constructed using the Q5 Site-Directed Mutagenesis Kit (New England Biolabs) following manufacturer’s instruction. We used the wild-type rat β3-pCI vector as template and the primers […] and […] resulting in a substitution of amino acid N41 (AAC) to R (AGG). We used the wild-type rat β1-pCI vector as template and the primers […] and […] resulting in a substitution of amino acid R41 (CGG) to N (AAC). The mutated subunits were confirmed by sequencing.
# (§2) In vitro transcription of mRNA was based on the cDNA expression vectors encoding for rat GABAA receptor subunits α1–6, β1-3, γ1,2, δ and the two β mutants (β1R41N and β3N41R)[40]. After linearizing the cDNA vectors with appropriate restriction endonucleases, the cDNA was purified and concentrated with the DNA Clean and Contentrator ^TM Kit (Zymoresearch, Catalog No. D4005). Capped transcripts of the purified cDNA were produced using the mMESSAGE mMACHINE® T7 transcription kit (Ambion, TX, USA) and polyadenylated using the Ambion PolyA tailing kit (Ambion). After transcription and polyadenylation the RNA was purified with the MEGAclear ^TM Kit (Ambion, Catalog No. AM1908). The final RNA concentration was measured on NanoDrop® ND-1000 and finally diluted and stored in diethylpyrocarbonate-treated water at −80 °C. For the microinjection, the RNA of αβ receptor combinations was mixed at 1:1 ratio (which leads to αβ receptors that consist of predominantly 3 beta and 2 alpha subunits[27]), for αkβlγm (k = 1–3, l = 1, 3, m = 1, 2) receptors at 1:1:5 ratio, for αkβ3γ2 (k = 4–6) and αkβlδ (k = 1, 4 and 6, l = 1, 3) receptor combinations at 3:1:5 ratio.
# (§3) Mature female Xenopus laevis (Nasco, WI) were anesthetized in a bath of ice-cold 0.17% Tricain (Ethyl-m-aminobenzoate, Sigma, MO) before decapitation in full accordance with all rules of the Austrian animal protection law (see http://www.ris.bka.gv.at/Dokumente/BgblAuth/BGBLA_2012_I_114/BGBLA_2012_I_114.pdf) and the Austrian animal experiment by-laws (see https://www.ris.bka.gv.at/Dokumente/BgblAuth/BGBLA_2012_II_522/BGBLA_2012_II_522.pdf) which implement the European Directive 2010/63/EU (see http://eur-lex.europa.eu/LexUriServ/LexUriServ.do?uri=OJ:L:2010:276:0033:0079:en:PDF) into the Austrian law (all information accessed on July 27, 2016). The frog’s ovaries were transferred to ND96 medium (96 mM NaCl, 2 mM KCl, 1 mM MgCl2, 5 mM HEPES; pH 7.5). Stage 5–6 oocytes with the follicle cell layer around them were roughly dissected with forceps into packages of 10–15 cells and washed in Ca^2+-free ND96 medium. Cells were then digested with collagenase (type IA, Sigma, NO, 1 mg/mL ND96) at 18 °C shaking at 30 rpm for 30–60 minutes and gently defolliculated with the aid of a glass pipette with appropriate tip diameter and a platinum loop. Defolliculated cells were stored at 18 °C for at least 6 hours in ND96 solution containing penicillin G (10000 IU/100 mL) and streptomycin (10 mg/100 mL) in order to preselect and exclude damaged cells from further treatment. Healthy defolliculated oocytes were injected with an aqueous solution of mRNA. A total of 4.5 ng of mRNA per oocyte was injected with a Nanoject II (Drummond). After injection of mRNA, oocytes were incubated at 18 °C (ND96 + antibiotic) for 2–3 days for αβ receptors and for 3–4 days for αβγ or αβδ receptors before recording. When cells were measured at later time points, oocytes were stored at +4 °C instead of 18 °C.
# (§4) For electrophysiological recordings, oocytes were placed on a nylon-grid in a bath of Ca^2+-containing NDE solution medium [96 mM NaCl, 5 mM HEPES-NaOH (pH 7.5), 2 mM KCl, 1 mM MgCl2, 1.8 mM CaCl2].
# [2] = biological target: T2, α1β3γ2 GABAA receptors (Rattus norvegicus, UniProt P62813+P63079); assay: Two electrode voltage clamp in Xenopus laevis oocytes, α1β3γ2
# T2 construct: expressed in transfected cells; host or cells: Xenopus laevis oocytes, mRNA injected
# Text: as §1, §2, §3, §4
# [3] = biological target: T3, α3β3γ2 GABAA receptors (Rattus norvegicus, UniProt P20236+P63079); assay: Two electrode voltage clamp in Xenopus laevis oocytes, α3β3γ2
# T3 construct: expressed in transfected cells; host or cells: Xenopus laevis oocytes, mRNA injected
# Text: as §1, §2, §3, §4
# [4] = biological target: T4, α3β3 GABAA receptors (Rattus norvegicus, UniProt P20236+P63079); assay: Two electrode voltage clamp in Xenopus laevis oocytes, α3β3
# T4 construct: expressed in transfected cells; host or cells: Xenopus laevis oocytes, mRNA injected
# Text: as §1, §2, §3, §4
# [5] = biological target: T5, α6β3γ2 GABAA receptors (Rattus norvegicus, UniProt P30191+P63079); assay: Two electrode voltage clamp in Xenopus laevis oocytes, α6β3γ2
# T5 construct: expressed in transfected cells; host or cells: Xenopus laevis oocytes, mRNA injected
# Text: as §1, §2, §3, §4
# [6] = biological target: T6, α2β3 GABAA receptors (Rattus norvegicus, UniProt P23576+P63079); assay: Two electrode voltage clamp in Xenopus laevis oocytes, α2β3
# T6 construct: expressed in transfected cells; host or cells: Xenopus laevis oocytes, mRNA injected
# Text: as §1, §2, §3, §4
# [7] = biological target: T7, α5β3γ2 GABAA receptors (Rattus norvegicus, UniProt P19969+P63079); assay: Two electrode voltage clamp in Xenopus laevis oocytes, α5β3γ2
# T7 construct: expressed in transfected cells; host or cells: Xenopus laevis oocytes, mRNA injected
# Text: as §1, §2, §3, §4
# [8] = read-out: efficacy, % of control current (GABA EC3-5 = 100%), 1 nM
# [9] = read-out: efficacy, % of control current (GABA EC3-5 = 100%), 10 nM
# [10] = read-out: efficacy, % of control current (GABA EC3-5 = 100%), 300 nM
# [11] = read-out: efficacy, % of control current (GABA EC3-5 = 100%), 1 µM
# [12] = read-out: efficacy, % of control current (GABA EC3-5 = 100%), 10 µM
# [13] = read-out: efficacy, % of control current (GABA EC3-5 = 100%), 30 µM
# [14] = read-out: efficacy, % of control current (GABA EC3-5 = 100%), 100 nM
# T3 sequence (P20236 29-493): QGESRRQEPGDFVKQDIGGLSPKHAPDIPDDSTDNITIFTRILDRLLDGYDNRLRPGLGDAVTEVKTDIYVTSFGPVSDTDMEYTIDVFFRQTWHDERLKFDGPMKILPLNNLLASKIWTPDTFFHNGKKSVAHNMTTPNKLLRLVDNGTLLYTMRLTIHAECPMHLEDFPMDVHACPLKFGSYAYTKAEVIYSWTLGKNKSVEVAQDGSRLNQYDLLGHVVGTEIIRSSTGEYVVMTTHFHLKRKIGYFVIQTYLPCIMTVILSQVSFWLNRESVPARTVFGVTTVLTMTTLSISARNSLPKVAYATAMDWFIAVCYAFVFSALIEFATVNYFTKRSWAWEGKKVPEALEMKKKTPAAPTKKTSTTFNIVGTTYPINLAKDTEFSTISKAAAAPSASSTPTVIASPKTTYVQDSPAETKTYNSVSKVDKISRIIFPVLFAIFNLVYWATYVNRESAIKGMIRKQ
# T3 sequence (P63079 26-473): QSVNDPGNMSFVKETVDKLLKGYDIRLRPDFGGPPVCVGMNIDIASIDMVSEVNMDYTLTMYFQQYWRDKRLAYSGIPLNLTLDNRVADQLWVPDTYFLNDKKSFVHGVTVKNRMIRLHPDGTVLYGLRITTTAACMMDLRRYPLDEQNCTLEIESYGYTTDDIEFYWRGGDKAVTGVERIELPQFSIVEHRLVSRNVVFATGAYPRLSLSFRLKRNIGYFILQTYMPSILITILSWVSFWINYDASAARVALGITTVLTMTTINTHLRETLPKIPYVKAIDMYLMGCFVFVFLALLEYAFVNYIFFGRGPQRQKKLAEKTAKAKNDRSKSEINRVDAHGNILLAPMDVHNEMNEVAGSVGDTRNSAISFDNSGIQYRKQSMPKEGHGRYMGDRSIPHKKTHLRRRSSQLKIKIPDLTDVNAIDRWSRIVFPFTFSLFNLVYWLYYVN
# T3 sequence (P18508 39-466 partner): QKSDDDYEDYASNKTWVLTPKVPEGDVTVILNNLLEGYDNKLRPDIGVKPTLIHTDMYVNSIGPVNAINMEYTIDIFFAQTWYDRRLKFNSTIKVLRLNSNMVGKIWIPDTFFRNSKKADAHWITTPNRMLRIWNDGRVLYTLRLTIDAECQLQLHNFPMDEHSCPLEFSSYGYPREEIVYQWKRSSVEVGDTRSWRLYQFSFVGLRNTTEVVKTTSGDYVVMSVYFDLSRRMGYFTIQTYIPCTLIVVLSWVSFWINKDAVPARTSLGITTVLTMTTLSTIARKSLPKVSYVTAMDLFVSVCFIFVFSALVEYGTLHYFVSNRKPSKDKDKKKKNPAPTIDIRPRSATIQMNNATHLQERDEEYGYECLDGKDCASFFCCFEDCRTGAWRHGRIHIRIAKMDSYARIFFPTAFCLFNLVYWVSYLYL
# T4 sequence (P20236 29-493): as the sequence (P20236 29-493) above
# T4 sequence (P63079 26-473): as the sequence (P63079 26-473) above
# T2 sequence (P62813 28-455): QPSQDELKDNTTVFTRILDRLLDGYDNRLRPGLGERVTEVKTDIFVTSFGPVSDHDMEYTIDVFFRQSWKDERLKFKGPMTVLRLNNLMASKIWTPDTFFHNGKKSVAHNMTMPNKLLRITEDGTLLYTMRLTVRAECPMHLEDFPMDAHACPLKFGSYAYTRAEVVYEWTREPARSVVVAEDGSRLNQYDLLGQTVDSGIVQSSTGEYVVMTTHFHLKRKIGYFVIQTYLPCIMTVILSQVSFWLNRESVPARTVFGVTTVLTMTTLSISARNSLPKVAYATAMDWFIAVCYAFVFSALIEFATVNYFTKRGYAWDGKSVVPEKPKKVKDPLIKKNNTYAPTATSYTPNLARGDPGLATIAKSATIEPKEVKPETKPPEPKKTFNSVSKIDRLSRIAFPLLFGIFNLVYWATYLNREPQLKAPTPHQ
# T2 sequence (P63079 26-473): as the sequence (P63079 26-473) above
# T2 sequence (P18508 39-466 partner): as the sequence (P18508 39-466 partner) above
# T1 sequence (P19969 32-464 limits assumed): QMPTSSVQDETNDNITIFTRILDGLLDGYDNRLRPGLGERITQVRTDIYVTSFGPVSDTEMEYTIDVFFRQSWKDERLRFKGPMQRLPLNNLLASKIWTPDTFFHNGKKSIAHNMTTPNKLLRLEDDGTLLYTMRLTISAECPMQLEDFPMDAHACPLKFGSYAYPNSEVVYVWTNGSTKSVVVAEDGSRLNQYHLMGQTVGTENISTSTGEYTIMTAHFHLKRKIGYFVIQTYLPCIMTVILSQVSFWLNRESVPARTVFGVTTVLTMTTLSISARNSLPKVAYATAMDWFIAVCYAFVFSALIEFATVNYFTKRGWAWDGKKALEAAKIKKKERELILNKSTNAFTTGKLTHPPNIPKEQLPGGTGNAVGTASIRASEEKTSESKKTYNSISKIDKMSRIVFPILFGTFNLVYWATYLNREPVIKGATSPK
# T1 sequence (P63079 26-473): as the sequence (P63079 26-473) above
# T7 sequence (P19969 32-464 limits assumed): as the sequence (P19969 32-464 limits assumed) above
# T7 sequence (P63079 26-473): as the sequence (P63079 26-473) above
# T7 sequence (P18508 39-466 partner): as the sequence (P18508 39-466 partner) above
# T6 sequence (P23576 29-451): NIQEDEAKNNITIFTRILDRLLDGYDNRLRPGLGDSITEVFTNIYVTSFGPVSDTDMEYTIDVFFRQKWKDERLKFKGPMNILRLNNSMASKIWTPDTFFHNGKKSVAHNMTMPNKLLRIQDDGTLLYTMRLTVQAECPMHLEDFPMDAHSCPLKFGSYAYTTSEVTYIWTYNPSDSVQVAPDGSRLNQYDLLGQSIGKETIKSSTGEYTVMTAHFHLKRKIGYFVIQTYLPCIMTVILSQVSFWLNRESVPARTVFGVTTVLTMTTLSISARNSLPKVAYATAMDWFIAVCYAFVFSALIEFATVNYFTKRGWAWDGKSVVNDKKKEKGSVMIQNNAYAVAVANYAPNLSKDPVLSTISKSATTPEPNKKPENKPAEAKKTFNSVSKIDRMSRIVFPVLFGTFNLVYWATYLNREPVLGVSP
# T6 sequence (P63079 26-473): as the sequence (P63079 26-473) above
# T5 sequence (P30191 20-453): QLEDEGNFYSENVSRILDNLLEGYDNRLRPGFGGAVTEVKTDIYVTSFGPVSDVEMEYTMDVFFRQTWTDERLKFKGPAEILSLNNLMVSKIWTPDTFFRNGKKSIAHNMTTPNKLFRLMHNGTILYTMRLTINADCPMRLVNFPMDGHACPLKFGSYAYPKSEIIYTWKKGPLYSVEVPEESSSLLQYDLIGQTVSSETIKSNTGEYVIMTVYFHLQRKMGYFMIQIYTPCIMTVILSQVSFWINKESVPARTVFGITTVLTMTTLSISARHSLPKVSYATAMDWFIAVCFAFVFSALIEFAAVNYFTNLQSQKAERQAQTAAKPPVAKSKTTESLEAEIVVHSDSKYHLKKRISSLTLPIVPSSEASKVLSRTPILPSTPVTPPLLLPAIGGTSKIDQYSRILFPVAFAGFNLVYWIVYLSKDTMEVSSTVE
# T5 sequence (P63079 26-473): as the sequence (P63079 26-473) above
# T5 sequence (P18508 39-466 partner): as the sequence (P18508 39-466 partner) above
smiles,measurement,setting,value
"Nc1ccc(-n2nc3c4cc(Cl)ccc4[nH]cc-3c2=O)cc1 [Compound 3, 8-Chloro-2-(4-aminophenyl)-2H-pyrazolo[4,3-c]quinolin-3(5H)-one]",activity at 0.1 µM,[1]; 100 nM,115 ± 8%
same,activity at 1 µM,[1]; 1 µM,108 ± 4.7%
same,activity at 10 µM,[1]; 10 µM,75.4 ± 6.4%
same,EC50,"[2]; co-applied with GABA EC3-5, read-out: EC50",~1 µM
same,activity at 0.001 µM,[2]; [8],100.8 ± 0.6%
same,activity at 0.01 µM,[2]; [9],103 ± 1.4%
same,activity at 0.3 µM,[2]; [10],120 ± 4.3%
same,activity at 1 µM,[2]; [11],145 ± 3.7%
same,activity at 3 µM,"[2]; read-out: efficacy, % of control current (GABA EC3-5 = 100%), 3 µM",197 ± 13.7%
same,activity at 10 µM,[2]; [12],232 ± 7.5%
same,activity at 30 µM,[2]; [13],137 ± 17.8%
same,Emax,[2]; read-out: maximum efficacy / modulatory effects up to,~200%
same,EC50,[2]; read-out: pEC50 (converted),1.26 µM
same,modulatory effects up to,[3],~ 200%
same,EC50,[3]; co-applied with GABA EC3-5,~1 µM and 1.2 µM
same,activity at 0.001 µM,[3]; [8],100%
same,activity at 0.01 µM,[3]; [9],101 ± 1%
same,activity at 0.1 µM,[3]; [14],108 ± 3.7%
same,activity at 0.3 µM,[3]; [10],104 ± 4%
same,activity at 1 µM,[3]; [11],133 ± 4%
same,activity at 10 µM,[3]; [12],202 ± 23%
same,activity at 30 µM,[3]; [13],195%
same,EC50,[4],1.9 µM
same,activity at 0.001 µM,"[4]; read-out: efficacy, % of control current (GABA EC3-5 = 100%), α3β3, 1 nM",103 ± 3.1%
same,activity at 1 µM,"[4]; read-out: efficacy, % of control current (GABA EC3-5 = 100%), α3β3, 1 µM",144 ± 6.3%
same,EC50,[5]; co-applied with GABA EC3-5,~2 µM and 2.3 µM
same,activity at 0.001 µM,[5]; [8],108 ± 5.9%
same,activity at 0.01 µM,[5]; [9],120 ± 7.1%
same,activity at 0.1 µM,[5]; [14],148 ± 8%
same,activity at 1 µM,[5]; [11],250 ± 18.9%
same,activity at 10 µM,[5]; [12],394 ± 35%
same,EC50,[6]; read-out: EC50,5.1 µM
same,activity at 0.001 µM,"[6]; read-out: efficacy, % of control current (GABA EC3-5 = 100%), α2β3, 1 nM",100 ± 0.1%
same,activity at 0.1 µM,"[6]; read-out: efficacy, % of control current (GABA EC3-5 = 100%), α2β3, 100 nM",102 ± 1.2%
same,activity at 10 µM,"[6]; read-out: efficacy, % of control current (GABA EC3-5 = 100%), α2β3, 10 µM",156 ± 9.7%
same,EC50,[7],> 10 µM
same,activity at 0.01 µM,"[7]; read-out: efficacy, % of control current (GABA EC3-5 = 100%), α5β3γ2, 10 nM",89.6 ± 3.1%
same,activity at 0.1 µM,"[7]; read-out: efficacy, % of control current (GABA EC3-5 = 100%), α5β3γ2, 100 nM",83.6 ± 4.2%
same,activity at 1 µM,"[7]; read-out: efficacy, % of control current (GABA EC3-5 = 100%), α5β3γ2, 1 µM",90.6 ± 5.1%
same,activity at 10 µM,"[7]; read-out: efficacy, % of control current (GABA EC3-5 = 100%), α5β3γ2, 10 µM",52.8 ± 6.7%
